Measured values published in ChEMBL document CHEMBL4145625 (J Med Chem, 2018).
Converted amounts (≈) assume the structure as drawn.

Experiments:
[1] = system: HGC-27; experiment: Antitumor activity against human HGC27 cells xenografted in BALB/c nude mouse assessed as tumor growth inhibition at […], po administered once daily for 15 days measured at post last dose relative to control; format: functional; conditions: HGC-27, po, 360 h, read-out: TGI
[2] = system: Mus musculus; experiment: In vivo inhibition of PI3Kalpha in po dosed athymic BALB/c nude mouse xenografted with human NCI-H460 cells administered as single dose via gavage after 2 to 24 hrs; format: functional, organism-based
[3] = in vitro; conditions: ICR, mouse, plasma
Description: Protein binding in ICR mouse plasma at 2 uM after 6 hrs by LC-MS/MS analysis

[4] = system: Salmonella typhimurium; experiment: Mutagenicity in Salmonella typhimurium TA1535 at 500 ug/plate after 72 hrs by Ames test; format: toxicity, organism-based; conditions: salmonella enterica subsp. enterica serovar typhimurium
[5] = system: Mus musculus; experiment: Toxicity in human HGC27 cells xenografted in BALB/c nude mouse assessed as reduction in body weight at […], po administered once daily for 15 days measured at post last dose; format: organism-based; conditions: in vivo, 360 h
[6] = system: Salmonella typhimurium; experiment: Mutagenicity in Salmonella typhimurium TA97 at 500 ug/plate after 72 hrs by Ames test; format: toxicity, organism-based; conditions: salmonella enterica subsp. enterica serovar typhimurium
[7] = mouse, in vivo, po, 10 mg/kg, 24 h
[8] = system: Mus musculus; experiment: Toxicity in human NCI-H460 cells xenografted BALB/c nude mouse assessed as reduction in body weight at 5 to 20 mg/kg, po administered once daily after 16 days; format: organism-based; conditions: in vivo, 384 h

Row | SMILES | inhibition in vivo at […] [1] | IC90 [2] | IC50 ([2]; Mus musculus, BALB/c, NCI-H460) | fraction unbound at 6 h, 2 µM [3] | Activity [4] | Activity [5] | Activity [6] | AUC [7] | Activity [8]
1 | CNc1nc(C)c2cc(-c3cnc(OC)c(NS(=O)(=O)c4ccc(F)cc4F)c3)cc(OC3CCOCC3)c2n1 | 94.1% | 4 ng/mL (≈ 7 nM) | 0.8 ng/mL (≈ 1.4 nM) | 0.0842 | Toxic | Toxic | Toxic | 5576 ng·h/g | –
2 | COc1ncc(-c2cc(O[C@@H]3CCOC3)c3nc(N)nc(C)c3c2)cc1NS(=O)(=O)c1ccc(F)cc1F | – | – | – | – | – | – | – | – | Toxic
